{
  "source": "PubChem BioAssay AID1259408",
  "about": "(Genetic Toxicology Data Bank (GENE-TOX), 2018)",
  "system": "GENE-TOX genotoxicity assays, various organisms and cells",
  "experiment": "GENE-TOX mutagenicity studies",
  "excerpt": "GENE-TOX provides genetic toxicology (mutagenicity) test data from expert peer review of open scientific literature for more than 3,000 chemicals from the United States Environmental Protection Agency (EPA). GENE-TOX was established to select assay systems for evaluation, review data in the scientific literature, and recommend proper testing protocols and evaluation procedures for these systems.\nGENE-TOX covers the years 1991 - 1998. It is no longer updated.\nThis is an archive assay for GENE-TOX mutagenicity studies.",
  "key": {"[1]": {"details": "Species/Cell Type: Drosophila melanogaster, Assay Type: Sex-linked recessive lethal gene mutation, Assay Code: SRLT, Evaluation Type: Evaluation A (Pre-1980)"}, "[2]": {"details": "Species/Cell Type: Nonhuman, Assay Type: Sister-chromatid exchange (SCE) in vitro, Assay Code: SC2+D, Dose Response: With dose response, Evaluation Type: Evaluation B (Post-1980)"}, "[3]": {"details": "Species/Cell Type: Salmonella typhimurium (one or more of the five standard strains: TA98, TA100, TA1535, TA1537, and TA1538), Assay Type: Histidine reverse gene mutation, Ames assay, Assay Code: SALT, Evaluation Type: Evaluation A (Pre-1980)"}, "[4]": {"details": "Species/Cell Type: Mammalian polychromatic erythrocytes, Assay Type: Micronucleus test, chromosome aberrations, Assay Code: MNTT, Evaluation Type: Evaluation B (Post-1980)"}, "[5]": {"details": "Species/Cell Type: Salmonella typhimurium (one or more of the five standard strains: TA98, TA100, TA1535, TA1537, and TA1538), Assay Type: Histidine reverse gene mutation, Ames assay, Assay Code: SAL+*, Activation: With metabolic activation, Evaluation Type: Evaluation A (Pre-1980)"}, "[6]": {"details": "Species/Cell Type: Drosophila melanogaster, Assay Type: Sex-linked recessive lethal gene mutation, Assay Code: SRL+, Evaluation Type: Evaluation A (Pre-1980)"}},
  "note": "Calls of active or inactive are those of the source. The rule behind the calls is not given here.",
  "data": [
    {"smiles": "CN(C)C(c1ccccc1)(c1ccccc1)N(C)C", "values": [
      {"measurement": "mutagenic call", "setting": "Species/Cell Type: Salmonella typhimurium (one or more of the five standard strains: TA98, TA100, TA1535, TA1537, and TA1538), Assay Type: Histidine reverse gene mutation, Ames assay, Assay Code: SAL-, Evaluation Type: Evaluation A (Pre-1980)", "result": "inactive; negative"}
    ]},
    {"smiles": "ClCCNCCCNc1c2ccccc2nc2ccccc12", "values": [
      {"measurement": "mutagenic call", "setting": "Species/Cell Type: Chinese hamster ovary (CHO) cells, Assay Type: Forward gene mutation at the HPRT locus, Assay Code: CHO+, Evaluation Type: Evaluation B (Post-1980)", "result": "active; positive"}
    ]},
    {"smiles": "CN(C)CCN(Cc1cccs1)c1ccccn1", "values": [
      {"measurement": "mutagenic call", "setting": "Species/Cell Type: Chinese hamster ovary (CHO) cells, Assay Type: Forward gene mutation at the HPRT locus, Assay Code: CHOT, Evaluation Type: Evaluation B (Post-1980)", "result": "no conclusion"},
      {"measurement": "mutagenic call", "setting": "Species/Cell Type: Nonhuman, Assay Type: Sister-chromatid exchange (SCE) in vitro, Assay Code: SC2-, Evaluation Type: Evaluation B (Post-1980)", "result": "inactive; negative"},
      {"measurement": "mutagenic call", "setting": "Species/Cell Type: Nonhuman, Assay Type: Sister-chromatid exchange (SCE) in vivo, Assay Code: SC3-, Evaluation Type: Evaluation B (Post-1980)", "result": "inactive; negative"}
    ]},
    {"smiles": "COC(=O)NC(=S)Nc1ccccc1N", "values": [
      {"measurement": "mutagenic call", "setting": "Species/Cell Type: Aspergillus nidulans, Assay Type: Aneuploidy, chromosome aberrations, Assay Code: ASN+, Evaluation Type: Evaluation A (Pre-1980)", "result": "active; positive"},
      {"measurement": "mutagenic call", "setting": "Species/Cell Type: Aspergillus nidulans, Assay Type: Mitotic recombination, Assay Code: ASG-, Evaluation Type: Evaluation A (Pre-1980)", "result": "inactive; negative"}
    ]},
    {"smiles": "O=C1CCC(=O)N1CN1CCOCC1", "values": [
      {"measurement": "mutagenic call", "setting": "Species/Cell Type: Arabidopsis species, Assay Type: Gene mutation, Assay Code: ARM-, Evaluation Type: Evaluation A (Pre-1980)", "result": "inactive; negative"}
    ]},
    {"smiles": "CC(=O)N(OS(=O)(=O)O)c1ccc2c(c1)Cc1ccccc1-2", "values": [
      {"measurement": "mutagenic call", "setting": "[1]", "result": "no conclusion"}
    ]},
    {"smiles": "Cn1c(CCCC(=O)O)nc2cc(N(CCCl)CCCl)ccc21", "values": [
      {"measurement": "mutagenic call", "setting": "[2]", "result": "active; positive"}
    ]},
    {"smiles": "[N-]=[N+]=Nc1ccc2c(c1)Cc1ccccc1-2", "values": [
      {"measurement": "mutagenic call", "setting": "Species/Cell Type: Mouse (C3H/10T1/2) cells, Assay Type: Cell transformation, Assay Code: CTH-, Evaluation Type: Evaluation A (Pre-1980)", "result": "inactive; negative"}
    ]},
    {"smiles": "C[C@]12CC[C@@H](O)C[C@@H]1CC[C@@H]1[C@@H]2CC[C@]2(C)C(=O)CC[C@@H]12", "values": [
      {"measurement": "mutagenic call", "setting": "Species/Cell Type: Mouse, Sex: Male, Assay Type: Sperm morphology, Assay Code: SPI-, Evaluation Type: Evaluation A (Pre-1980)", "result": "inactive; negative"}
    ]},
    {"smiles": "O=[N+]([O-])c1ccc(-c2nc(N(CCO)CCO)c3ccccc3n2)s1", "values": [
      {"measurement": "mutagenic call", "setting": "[3]", "result": "no conclusion"}
    ]},
    {"smiles": "COc1cccc(OC)c1C(=O)N[C@@H]1C(=O)N2[C@@H]1SC(C)(C)[C@@H]2C(=O)O", "values": [
      {"measurement": "mutagenic call", "setting": "Species/Cell Type: Escherichia coli polA (W3119 vs P3478), Assay Type: Rec-assay, DNA effects (bacterial DNA repair), Assay Code: RE1-, Evaluation Type: Evaluation A (Pre-1980)", "result": "inactive; negative"}
    ]},
    {"smiles": "Cc1ncc(CO)c(C(=O)O)c1O", "values": [
      {"measurement": "mutagenic call", "setting": "Species/Cell Type: Human lymphocytes, Assay Type: Sister-chromatid exchange (SCE) in vitro, Assay Code: SCLT, Evaluation Type: Evaluation B (Post-1980)", "result": "no conclusion"},
      {"measurement": "mutagenic call", "setting": "Species/Cell Type: Human, Assay Type: Sister-chromatid exchange (SCE) in vitro, Assay Code: SC1T, Evaluation Type: Evaluation B (Post-1980)", "result": "no conclusion"}
    ]},
    {"smiles": "COP(=S)(OC)SCc1nc(N)nc(N)n1", "values": [
      {"measurement": "mutagenic call", "setting": "Species/Cell Type: Hordeum vulgare (barley), Assay Type: Chromosome aberrations, Assay Code: HOC-, Evaluation Type: Evaluation A (Pre-1980)", "result": "inactive; negative"}
    ]},
    {"smiles": "O=c1ccc2c(cc(O)c3c4ccccc4nnc23)o1", "values": [
      {"measurement": "mutagenic call", "setting": "[4]", "result": "no conclusion"}
    ]},
    {"smiles": "CCOC(=O)COc1ccc(Br)cc1CSC(=N)N", "values": [
      {"measurement": "mutagenic call", "setting": "Species/Cell Type: Saccharomyces cerevisiae, Assay Type: Reverse gene mutation, Assay Code: YERT, Evaluation Type: Evaluation A (Pre-1980)", "result": "no conclusion"}
    ]},
    {"smiles": "COP(=S)(OC)Oc1ccc([N+](=O)[O-])c(C)c1", "values": [
      {"measurement": "mutagenic call", "setting": "[1]", "result": "no conclusion"},
      {"measurement": "mutagenic call", "setting": "Species/Cell Type: Human, Assay Type: Sister-chromatid exchange (SCE) in vitro, Assay Code: SC1+, Evaluation Type: Evaluation B (Post-1980)", "result": "active; positive"},
      {"measurement": "mutagenic call", "setting": "[4]", "result": "no conclusion"},
      {"measurement": "mutagenic call", "setting": "Species/Cell Type: Rodents, Sex: Male, Assay Type: Dominant lethal test, Assay Code: DLT-, Evaluation Type: Evaluation A (Pre-1980)", "result": "inactive; negative"},
      {"measurement": "mutagenic call", "setting": "Species/Cell Type: Salmonella typhimurium, Assay Type: Forward and reverse gene mutation, host-mediated assay, Assay Code: HMA-, Evaluation Type: Evaluation A (Pre-1980)", "result": "inactive; negative"}
    ]},
    {"smiles": "CCCCOC(=O)C=[N+]=[N-]", "values": [
      {"measurement": "mutagenic call", "setting": "Species/Cell Type: Arabidopsis species, Assay Type: Gene mutation, Assay Code: ARM+, Evaluation Type: Evaluation A (Pre-1980)", "result": "active; positive"}
    ]},
    {"smiles": "Cc1cc2cc3ccccc3cc2c2ccccc12", "values": [
      {"measurement": "mutagenic call", "setting": "[2]", "result": "active; positive"},
      {"measurement": "mutagenic call", "setting": "[5]", "result": "active; positive"}
    ]},
    {"smiles": "CC(C)(c1ccc(OCC2CO2)cc1)c1ccc(OCC2CO2)cc1", "note": "(centres undefined)", "values": [
      {"measurement": "mutagenic call", "setting": "[5]", "result": "active; positive"}
    ]},
    {"smiles": "Clc1ccccc1Cl", "values": [
      {"measurement": "mutagenic call", "setting": "Species/Cell Type: Mammalian polychromatic erythrocytes, Assay Type: Micronucleus test, chromosome aberrations, Assay Code: MNT+, Evaluation Type: Evaluation B (Post-1980)", "result": "active; positive"}
    ]},
    {"smiles": "O=S(=O)(Cl)c1cccc2cccnc12", "values": [
      {"measurement": "mutagenic call", "setting": "[3]", "result": "no conclusion"}
    ]},
    {"smiles": "O=C(O)c1cc(N=Nc2ccc([N+](=O)[O-])cc2)ccc1O", "values": [
      {"measurement": "mutagenic call", "setting": "[3]", "result": "no conclusion"}
    ]},
    {"smiles": "N=NN", "values": [
      {"measurement": "mutagenic call", "setting": "[6]", "result": "active; positive"}
    ]},
    {"smiles": "O=C1C=C(N2CC2)C(=O)C=C1N1CC1", "values": [
      {"measurement": "mutagenic call", "setting": "[6]", "result": "active; positive"}
    ]},
    {"smiles": "C1=C[C@H]2O[C@H]2c2c1cc1ccc3cccc4ccc2c1c34", "values": [
      {"measurement": "mutagenic call", "setting": "Species/Cell Type: Chinese hamster lung (V79) cells, Assay Type: Forward gene mutation at the HPRT or ouabain locus, Assay Code: V79-, Evaluation Type: Evaluation A (Pre-1980)", "result": "inactive; negative"},
      {"measurement": "call", "setting": "Species/Cell Type: Nonhuman, Assay Type: In vivo carcinogenicity studies, Assay Code: CCGT, Evaluation Type: Evaluation A (Pre-1980)", "result": "no conclusion"},
      {"measurement": "mutagenic call", "setting": "Species/Cell Type: Salmonella typhimurium (one or more of the five standard strains: TA98, TA100, TA1535, TA1537, and TA1538), Assay Type: Histidine reverse gene mutation, Ames assay, Assay Code: SAL+, Evaluation Type: Evaluation A (Pre-1980)", "result": "active; positive"}
    ]},
    {"smiles": "Cc1cc(C(=C2C=CC(=Nc3ccc(S(=O)(=O)O)cc3)C=C2)c2ccc(Nc3ccc(S(=O)(=O)O)cc3)cc2)cc(S(=O)(=O)O)c1N", "values": [
      {"measurement": "mutagenic call", "setting": "Species/Cell Type: Bacillus subtilis (H17 vs M45), Assay Type: Rec-assay, spot test, DNA effects (bacterial DNA repair), Assay Code: REWT, Evaluation Type: Evaluation A (Pre-1980)", "result": "no conclusion"}
    ]},
    {"smiles": "O=CONC(=O)c1ccc2ccccc2c1", "values": [
      {"measurement": "mutagenic call", "setting": "[2]", "result": "active; positive"}
    ]},
    {"smiles": "CCCCN(CC(O)CCO)N=O", "note": "(centres undefined)", "values": [
      {"measurement": "mutagenic call", "setting": "[5]", "result": "active; positive"}
    ]}
  ]
}
